Calls of active or inactive are those of the source. No cut-off for these calls is given here.
What was measured:
[1] = Toxicity in BALB/c syngenic mouse bearing CT26 cells assessed as effect on body weight at 0.015 to 1.5 mg/kg, iv measured every 2 to 3 days for 17 days; assay type: organism-based; details: in vivo, 408 h, dose 0.015-1.5 mg/kg, time 17 day
[2] = Activation of IRF-mediated immune response in human THP1-Dual KO-STING cells co-expressing ISRE reporter assessed as normalized luciferase gene expression by measuring relative luciferase units at 50 uM incubated for 24 hrs by QUANTI Luc based microplate reader method; assay type: functional
[3] = target: T1, Stimulator of interferon genes protein (Homo sapiens, UniProt Q86WV6); experiment: Binding affinity to STING in human THP-1 cells assessed as thermal stabilization at 48 to 55 degC at 100 nM incubated for 4 hrs by western blotting based CETSA assay; assay type: cell-based; details: filed as activator
Cytochrome P450 1A2 = target: T2, Cytochrome P450 1A2 (Homo sapiens, UniProt P05177); experiment: Inhibition of CYP1A2 in human liver microsomes using phenacetin as cocktail probe substrate preincubated for 5 mins followed by NADPH addition and measured after 30 mins by HPLC-MS/MS analysis; assay type: ADME, Microsome
T2 sequence (P05177 whole entry): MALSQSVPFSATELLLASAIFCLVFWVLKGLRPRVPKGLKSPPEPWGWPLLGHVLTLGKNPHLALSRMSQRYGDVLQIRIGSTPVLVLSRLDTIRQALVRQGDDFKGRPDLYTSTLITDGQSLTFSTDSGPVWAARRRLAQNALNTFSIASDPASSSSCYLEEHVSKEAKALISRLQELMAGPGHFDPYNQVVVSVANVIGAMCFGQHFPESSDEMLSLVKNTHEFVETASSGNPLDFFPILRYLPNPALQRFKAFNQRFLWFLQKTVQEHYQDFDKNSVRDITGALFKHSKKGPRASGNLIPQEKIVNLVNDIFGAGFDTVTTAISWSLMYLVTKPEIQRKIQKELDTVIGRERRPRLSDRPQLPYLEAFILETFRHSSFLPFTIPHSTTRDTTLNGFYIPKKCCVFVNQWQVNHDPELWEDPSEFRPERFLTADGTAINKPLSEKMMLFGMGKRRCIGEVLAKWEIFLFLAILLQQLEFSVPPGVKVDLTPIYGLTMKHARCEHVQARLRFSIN

Cytochrome P450 2C19 = Cytochrome P450 2C19 (Homo sapiens, UniProt P33261); experiment: Inhibition of CYP2C19 in human liver microsomes using S-mephenytoin as cocktail probe substrate preincubated for 5 mins followed by NADPH addition and measured after 30 mins by HPLC-MS/MS analysis; assay type: ADME, Microsome
Cytochrome P450 2D6 = Cytochrome P450 2D6 (Homo sapiens, UniProt P10635); experiment: Inhibition of CYP2D6 in human liver microsomes using dextromethorphan as cocktail probe substrate preincubated for 5 mins followed by NADPH addition and meaured after 30 mins by HPLC-MS/MS analysis; assay type: ADME, Microsome
Cytochrome P450 3A4 = Cytochrome P450 3A4 (Homo sapiens, UniProt P08684); experiment: Inhibition of CYP3A4 in human liver microsomes using […] as cocktail probe substrate preincubated for 5 mins followed by NADPH addition and measured after 30 mins by HPLC-MS/MS analysis; assay type: ADME, Microsome
[4] = Stability in mouse liver microsome assessed as parent compound remaining at 1 uM measured after 30 mins in the presence of NADPH by HPLC-MS/MS analysis; assay type: ADME; details: liver microsomes, read-out: Stability
[5] = Stability in human liver microsome assessed as parent compound remaining at 1 uM measured after 30 mins in the presence of NADPH by HPLC-MS/MS analysis; assay type: ADME; details: liver microsomes, read-out: Stability
[6] = Stability in human plasma assessed as parent compound remaining at 5 uM measured after 4 hrs by HPLC-MS/MS analysis; assay type: ADME, cell-free; details: read-out: Stability
[7] = target: T1, Stimulator of interferon genes protein; experiment: Activation of STING mediated immune response in human THP-1 cells assessed as induction of IFNbeta secretion measured after 24 hrs by ELISA; assay type: cell-based
[8] = target: T1, Stimulator of interferon genes protein; experiment: Activation of STING mediated immune response in human THP-1 cells assessed as induction of IP-10 secretion measured after 24 hrs by ELISA; assay type: cell-based; details: filed as activator, dose 0.41-100 nM, DDE = dose-dependent effect
[9] = target: T1, Stimulator of interferon genes protein; experiment: Activation of STING pathway in human THP1-cells assessed as increase in IRF3 phosphorylation at 2 nM incubated 6 hrs by Western blotting analysis; assay type: cell-based; details: THP-1, filed as activator
THP-1 [10] = experiment: Upregulation of IFITM1 in human THP-1 cells at 100 nM measured after 6 to 18 hrs by RT-PCR analysis; assay type: functional, cell-based; details: time 6-18 hrs
THP-1 [11] = experiment: Upregulation of OAS1 in human THP-1 cells at 100 nM measured after 6 to 18 hrs by RT-PCR analysis; assay type: functional, cell-based; details: time 6-18 hrs
THP-1 [12] = experiment: Upregulation of ISG15 in human THP-1 cells at 100 nM measured after 6 to 18 hrs by RT-PCR analysis; assay type: functional, cell-based; details: time 6-18 hrs
[13] = Solubility of the compound in DMSO at 50 to 100 uM incubated for 72 hrs; assay type: physicochemical; details: dose 50-100 µM
CT26 [14] = experiment: Antitumor activity against CT26 cells injected in BALB/c syngenic mouse model assessed as reduction in tumor growth at 0.015 to 1.5 mg/kg, iv measured every 2 to 3 days for 17 days; assay type: functional, organism-based; details: dose 0.015-1.5 mg/kg, time 17.0 day
RAW264.7 = experiment: Activation of NF-kappaB mediated pro-inflammatory effector proteins in mouse RAW264.7 cells at 100 to 500 nM for incubated for 3 hrs by western blot analysis; assay type: cell-based; details: filed as activator, dose 100-500 nM
[15] = Terminal half life in BALB/c mouse at 3 mg/kg, iv by LC-MS/MS analysis; assay type: ADME, organism-based; details: in vivo, read-out: beta t1/2 (converted)
[16] = Clearance in BALB/c mouse at 3 mg/kg, iv by LC-MS/MS analysis; assay type: ADME, organism-based; details: in vivo, iv, 3 mg/kg
[17] = AUCinfinity in BALB/c mouse at 3 mg/kg, iv by LC-MS/MS analysis; assay type: ADME, organism-based; set-up: time infinity, dose 3 mg/kg, route iv; details: in vivo
CT26 [18] = experiment: Antitumor immunity activity against mouse CT26 cells xenografted in BALB/c mouse model assessed as tumor growth inhibition at 1.5 mg/kg, iv measured after 8 days; assay type: functional, organism-based; details: time 8.0 day
[19] = Toxicity in BALB/c mouse xenografted with mouse CT26 cells assessed as effect on body weight at 1.5 mg/kg, iv measured after 8 days; assay type: organism-based; details: in vivo, 192 h, time 8 day
[20] = target: T1, Stimulator of interferon genes protein; experiment: Activation of STING pathway in human THP1-cells assessed as increase in STING phosphorylation at 2 nM incubated for 6 hrs by Western blotting analysis; assay type: cell-based; details: THP-1, filed as activator

T1 sequence (Q86WV6 whole entry): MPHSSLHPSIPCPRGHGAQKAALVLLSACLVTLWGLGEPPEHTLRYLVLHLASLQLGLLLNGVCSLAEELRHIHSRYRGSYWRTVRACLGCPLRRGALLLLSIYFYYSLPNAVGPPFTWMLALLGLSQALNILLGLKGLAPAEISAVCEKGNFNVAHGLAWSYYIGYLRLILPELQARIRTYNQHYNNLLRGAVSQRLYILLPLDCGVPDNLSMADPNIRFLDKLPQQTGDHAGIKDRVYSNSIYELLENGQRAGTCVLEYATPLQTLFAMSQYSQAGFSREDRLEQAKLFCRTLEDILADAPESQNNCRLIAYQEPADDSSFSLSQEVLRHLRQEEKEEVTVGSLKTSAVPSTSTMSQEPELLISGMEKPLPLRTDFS
Cytochrome P450 2C19, sequence (P33261 whole entry): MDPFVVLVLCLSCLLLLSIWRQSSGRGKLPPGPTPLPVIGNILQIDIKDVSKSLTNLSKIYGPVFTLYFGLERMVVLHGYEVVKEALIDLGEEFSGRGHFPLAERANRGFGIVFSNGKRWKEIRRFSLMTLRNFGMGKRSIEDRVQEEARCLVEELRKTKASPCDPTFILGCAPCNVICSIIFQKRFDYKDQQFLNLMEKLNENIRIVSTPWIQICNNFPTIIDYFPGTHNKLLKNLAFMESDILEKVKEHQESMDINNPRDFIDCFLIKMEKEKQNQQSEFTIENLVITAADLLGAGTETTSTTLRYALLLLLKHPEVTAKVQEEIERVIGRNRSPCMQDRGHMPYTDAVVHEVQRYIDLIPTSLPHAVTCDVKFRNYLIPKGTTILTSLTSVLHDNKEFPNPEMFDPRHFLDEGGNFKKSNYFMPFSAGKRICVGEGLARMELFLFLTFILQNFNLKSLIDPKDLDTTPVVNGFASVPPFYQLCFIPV
Cytochrome P450 3A4, sequence (P08684 whole entry): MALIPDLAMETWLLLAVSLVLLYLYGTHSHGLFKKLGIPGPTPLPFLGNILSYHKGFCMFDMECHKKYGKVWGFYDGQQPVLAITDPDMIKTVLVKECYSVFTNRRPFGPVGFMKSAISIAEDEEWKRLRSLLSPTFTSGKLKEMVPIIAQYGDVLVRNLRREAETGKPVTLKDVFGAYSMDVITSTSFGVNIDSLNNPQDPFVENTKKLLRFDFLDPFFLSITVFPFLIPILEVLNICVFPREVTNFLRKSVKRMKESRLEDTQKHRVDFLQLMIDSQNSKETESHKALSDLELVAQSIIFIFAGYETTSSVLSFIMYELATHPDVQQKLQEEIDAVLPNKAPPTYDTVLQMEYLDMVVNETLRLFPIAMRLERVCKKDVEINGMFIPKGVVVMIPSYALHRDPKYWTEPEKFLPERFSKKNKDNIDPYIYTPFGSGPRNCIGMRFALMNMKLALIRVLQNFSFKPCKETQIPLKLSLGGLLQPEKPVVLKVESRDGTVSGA
Cytochrome P450 2D6, sequence (P10635 whole entry): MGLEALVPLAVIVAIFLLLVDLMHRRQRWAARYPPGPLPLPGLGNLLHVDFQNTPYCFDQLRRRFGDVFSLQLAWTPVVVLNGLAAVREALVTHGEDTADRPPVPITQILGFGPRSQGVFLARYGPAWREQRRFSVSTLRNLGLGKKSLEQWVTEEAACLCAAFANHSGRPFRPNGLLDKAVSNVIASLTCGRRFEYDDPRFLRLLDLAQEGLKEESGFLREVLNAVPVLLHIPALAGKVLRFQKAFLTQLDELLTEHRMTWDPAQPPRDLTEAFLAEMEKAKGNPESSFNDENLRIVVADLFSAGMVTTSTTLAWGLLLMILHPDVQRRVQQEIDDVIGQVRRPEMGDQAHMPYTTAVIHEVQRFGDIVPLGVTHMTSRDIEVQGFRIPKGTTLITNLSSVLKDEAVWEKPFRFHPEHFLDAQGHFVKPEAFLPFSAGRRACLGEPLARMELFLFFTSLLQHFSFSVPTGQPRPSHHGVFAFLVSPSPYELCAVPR

Activity [3]: Active
IC50 (Cytochrome P450 1A2): > 100 µM
IC50 (Cytochrome P450 2C19): > 100 µM
IC50 (Cytochrome P450 2D6): > 100 µM
IC50 (Cytochrome P450 3A4): 4.2 µM
remaining at 0.5 h, 1 µM [4]: 38.7%
remaining at 0.5 h, 1 µM [5]: 11.2%
remaining at 4 h, 5 µM [6]: > 99%
EC50 [7]: 0.002 µM
Activity ([7]; filed as activator, dose 0.12-2000 nM, DDE = dose-dependent effect): Dde
Activity [8]: Dde
Activity [9]: Active
solubility [13]: Soluble
half-life [15]: 10.5 h
CL [16]: 2.12 L/h/kg
AUC [17]: 4.78 µg·h/mL
Activity [20]: Active
Structure (SMILES): CCn1nc(C)cc1C(=O)Nc1nc2cc(C(N)=O)cc(OC)c2n1C/C=C/Cn1c(NC(=O)c2cc(C)nn2CC)nc2cc(C(N)=O)cc(OCCCNC(=O)OC(C)(C)C)c21
Activity [1]: Non-Toxic
RLU [2]: 1.1
Activity (THP-1 [10]): Active
Activity (THP-1 [11]): Active
Activity (THP-1 [12]): Active
Activity (CT26 [14]): Active
Activity (RAW264.7): Active
Activity (CT26 [18]): Active
Activity [19]: Non-Toxic
